From PubChem BioAssay AID296 (DTP/NCI, 2004)
Several values for one entry are separate records, joined by “and”; a condition that tells them apart may be missing. Equal values may be shown once. Records with an inconclusive call do not appear.

System: MX-1 breast xenograft, nude mice, tumor weight T/C
Assay: NCI In Vivo Anticancer Drug Screen. Data for tumor model Human Mammary Carcinoma MX-1 Xenograft (intrarenal inoculation) in NU/NU Swiss (nude) mice
Details: endpoint: mean tumor weight change, higher = larger tumour
Method in brief: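 Activity is given as a ratio, with each measurement in the compound-treated arm divided by the matching measurement in vehicle-dosed controls. Tumour size or survival serves as the measured parameter.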

[1] = dose: 300.0 mg/kg/injection, schedule: Q04DX003 (sc), vehicle: suspension in saline
[2] = dose: 300.0 mg/kg/injection, schedule: Q04DX003 (sc), vehicle: saline
[3] = dose: 300.0 mg/kg/injection, schedule: Q04DX003 (sc), vehicle: saline with Tween-80
[4] = dose: 600.0 mg/kg/injection, schedule: Q04DX003 (sc), vehicle: saline with Tween-80
[5] = dose: 1200.0 mg/kg/injection, schedule: Q04DX003 (sc), vehicle: saline with Tween-80
[6] = dose: 2400.0 mg/kg/injection, schedule: Q04DX003 (sc), vehicle: saline with Tween-80

## CC1Oc2cc3c(-c4c(O)cc(O)c5c(O)c6c(cc45)OC(C)C(C)C6=O)c(O)cc(O)c3c(O)c2C(=O)C1C (stereo unspecified)
dose: 9.38 mg/kg/injection, schedule: Q04DX003 (ip), vehicle: suspension in saline
  T/C: 16 % of control

## CN=C(N)N/N=C(\C)c1ccc2c(c1)Cc1cc(/C(C)=N/NC(N)=NC)ccc1-2
dose: 6.0 mg/kg/injection, schedule: Q04DX003 (sc), vehicle: saline with Tween-80
  T/C: 46 % of control
dose: 12.0 mg/kg/injection, schedule: Q04DX003 (sc), vehicle: saline with Tween-80
  T/C: 84 % of control
dose: 24.0 mg/kg/injection, schedule: Q04DX003 (sc), vehicle: saline with Tween-80
  T/C: 100 % of control
dose: 48.0 mg/kg/injection, schedule: Q04DX003 (sc), vehicle: saline with Tween-80
  T/C: 58 % of control

## COC1=C(N)C(=O)c2nc(-c3nc(C(=O)O)c(C)c(-c4ccc(OC)c(OC)c4O)c3N)ccc2C1=O
dose: 0.13 mg/kg/injection, schedule: Q01DX010 (sc), vehicle: saline
  T/C: 15 % of control and 18 % of control
dose: 0.5 mg/kg/injection, schedule: Q01DX010 (sc), vehicle: saline
  T/C: -77 % of control and -75 % of control

## CC[C@](O)(C(=O)O)c1cc2n(c(=O)c1CO)Cc1cc3ccccc3nc1-2
dose: 8.0 mg/kg/injection, schedule: Q04DX003 (sc), vehicle: saline
  T/C: 2 % of control
dose: 16.0 mg/kg/injection, schedule: Q04DX003 (sc), vehicle: saline
  T/C: -92 % of control
dose: 32.0 mg/kg/injection, schedule: Q04DX003 (sc), vehicle: saline
  T/C: -89 % of control
dose: 64.0 mg/kg/injection, schedule: Q04DX003 (sc), vehicle: saline
  T/C: -100 % of control

## N=c1nc2n(cc1F)[C@@H]1O[C@H](CO)[C@@H](O)[C@@H]1O2
[1]
  T/C: 104 % of control
dose: 600.0 mg/kg/injection, schedule: Q04DX003 (sc), vehicle: suspension in saline
  T/C: 89 % of control
dose: 1200.0 mg/kg/injection, schedule: Q04DX003 (sc), vehicle: suspension in saline
  T/C: 117 % of control

## Nc1ccccc1N
dose: 25.0 mg/kg/injection, schedule: Q01DX010 (sc), vehicle: Klucel (hydroxypropylcellulose) (HPC)
  T/C: 103 % of control
dose: 100.0 mg/kg/injection, schedule: Q01DX010 (sc), vehicle: Klucel (hydroxypropylcellulose) (HPC)
  T/C: 80 % of control and 211 % of control
dose: 200.0 mg/kg/injection, schedule: Q01DX010 (sc), vehicle: Klucel (hydroxypropylcellulose) (HPC)
  T/C: 34 % of control and 47 % of control

## OC(C1CO1)C(O)C1CO1 (stereo unspecified)
dose: 1.0 mg/kg/injection, schedule: Q01DX010 (sc), vehicle: saline
  T/C: 5 % of control and 18 % of control

## OCCCN1CCCCC1CO (stereo unspecified)
[2]
  T/C: 85 % of control
dose: 600.0 mg/kg/injection, schedule: Q04DX003 (sc), vehicle: saline
  T/C: 84 % of control
dose: 1200.0 mg/kg/injection, schedule: Q04DX003 (sc), vehicle: saline
  T/C: 98 % of control

## O=C(O)Cc1cccc2c(=O)cc(-c3ccccc3)oc12
dose: 100.0 mg/kg/injection, schedule: Q04DX003 (ip), vehicle: suspension in saline
  T/C: 75 % of control

## CCC1(O)CC2CN(CCc3c([nH]c4ccccc34)C(C(=O)OC)(c3cc4c(cc3OC)N(C)C3C(O)(C(=O)NCCSSCCNC(=O)C5(O)C(O)C6(CC)C=CCN7CCC8(c9cc(C%10(C(=O)OC)CC%11CN(CCc%12c%10[nH]c%10ccccc%12%10)CC(O)(CC)C%11)c(OC)cc9N(C)C58)C76)C(O)C5(CC)C=CCN6CCC43C65)C2)C1 (stereo unspecified)
dose: 1.5 mg/kg/injection, schedule: Q04DX003 (sc), vehicle: suspension in saline
  T/C: 101 % of control
dose: 3.0 mg/kg/injection, schedule: Q04DX003 (sc), vehicle: suspension in saline
  T/C: 102 % of control
dose: 6.0 mg/kg/injection, schedule: Q04DX003 (sc), vehicle: suspension in saline
  T/C: 70 % of control
dose: 12.0 mg/kg/injection, schedule: Q04DX003 (sc), vehicle: saline
  T/C: 1 % of control
dose: 12.0 mg/kg/injection, schedule: Q04DX003 (sc), vehicle: suspension in saline
  T/C: 73 % of control

## O=C1[C@H]2CCC[C@H]2[C@H]2CCC[C@@H]12
[3]
  T/C: 112 % of control
[4]
  T/C: 123 % of control
[5]
  T/C: 95 % of control
[6]
  T/C: 92 % of control

## NCCc1cc(O)c(O)c(O)c1
dose: 100.0 mg/kg/injection, schedule: Q04DX003 (sc), vehicle: saline
  T/C: 59 % of control
dose: 200.0 mg/kg/injection, schedule: Q04DX003 (sc), vehicle: saline
  T/C: 150 % of control
dose: 400.0 mg/kg/injection, schedule: Q04DX003 (sc), vehicle: saline
  T/C: 154 % of control
dose: 800.0 mg/kg/injection, schedule: Q04DX003 (sc), vehicle: saline
  T/C: 72 % of control

## O=S(=O)(O)c1cc(N=C=S)ccc1/C=C/c1ccc(N=C=S)cc1S(=O)(=O)O
dose: 150.0 mg/kg/injection, schedule: Q04DX003 (ip), vehicle: saline
  T/C: 47 % of control

## C=C1C(C)C2C(Cc3ccccc3)NC(=O)C23C(OC(C)=O)C=CC(C)(O)C(=O)C(C)C/C=C/C3C1O (stereo unspecified)
dose: 3.75 mg/kg/injection, schedule: Q04DX003 (sc), vehicle: Klucel (hydroxypropylcellulose) (HPC)
  T/C: 344 % of control
dose: 7.5 mg/kg/injection, schedule: Q04DX003 (sc), vehicle: Klucel (hydroxypropylcellulose) (HPC)
  T/C: 528 % of control
dose: 15.0 mg/kg/injection, schedule: Q04DX003 (sc), vehicle: Klucel (hydroxypropylcellulose) (HPC)
  T/C: 497 % of control

## O=C(Nc1nncs1)c1cccs1
[3]
  T/C: 98 % of control
[4]
  T/C: 177 % of control
[5]
  T/C: 115 % of control
[6]
  T/C: 65 % of control

## C(CC1CO1)C1CO1 (stereo unspecified)
dose: 100.0 mg/kg/injection, schedule: Q01DX010 (sc), vehicle: saline
  T/C: -59 % of control and -41 % of control
dose: 150.0 mg/kg/injection, schedule: Q04DX003 (sc), vehicle: suspension in saline
  T/C: 1 % of control and 11 % of control
[1]
  T/C: 4 % of control

## CC1=C2CC(C)(C)/C=C\C(=O)/C(C)=C\C3=C[C@H](C)C[C@]3(O2)C1=O
dose: 12.5 mg/kg/injection, schedule: Q04DX003 (sc), vehicle: Klucel (hydroxypropylcellulose) (HPC)
  T/C: 84 % of control
dose: 25.0 mg/kg/injection, schedule: Q04DX003 (sc), vehicle: Klucel (hydroxypropylcellulose) (HPC)
  T/C: 100 % of control
dose: 50.0 mg/kg/injection, schedule: Q04DX003 (sc), vehicle: Klucel (hydroxypropylcellulose) (HPC)
  T/C: 82 % of control

## BrC1CC(Br)c2c1c1c(c3c2C(Br)CC3Br)C(Br)CC1Br (stereo unspecified)
dose: 300.0 mg/kg/injection, schedule: Q04DX003 (sc), vehicle: water
  T/C: 92 % of control
dose: 600.0 mg/kg/injection, schedule: Q04DX003 (sc), vehicle: water
  T/C: 104 % of control
dose: 1200.0 mg/kg/injection, schedule: Q04DX003 (sc), vehicle: water
  T/C: 120 % of control
dose: 2400.0 mg/kg/injection, schedule: Q04DX003 (sc), vehicle: water
  T/C: 50 % of control

## CCN(CC)CCNc1ccc(C)c2sc3ccc(O)cc3c(=O)c12
[4]
  T/C: 67 % of control
[5]
  T/C: 57 % of control

## O=C(O)CSc1nc(-c2ccccc2)c(-c2ccccc2)n1-c1ccccn1
dose: 50.0 mg/kg/injection, schedule: Q01DX010 (sc), vehicle: water
  T/C: 196 % of control
dose: 100.0 mg/kg/injection, schedule: Q01DX010 (sc), vehicle: water
  T/C: 50 % of control
dose: 200.0 mg/kg/injection, schedule: Q01DX010 (sc), vehicle: water
  T/C: 78 % of control

## CCC[CH2][Sn]1([CH2]CCC)[O]C2C(CO)OC(n3ccc(N)nc3=O)C2[O]1 (stereo unspecified)
dose: 12.0 mg/kg/injection, schedule: Q04DX003 (sc), vehicle: Klucel (hydroxypropylcellulose) (HPC)
  T/C: 55 % of control
dose: 24.0 mg/kg/injection, schedule: Q04DX003 (sc), vehicle: Klucel (hydroxypropylcellulose) (HPC)
  T/C: 59 % of control

## C/C=C/C=C1/OC(C)=C(C(C)=O)C1=O
dose: 200.0 mg/kg/injection, schedule: Q04DX003 (sc), vehicle: saline with Tween-80
  T/C: 104 % of control
dose: 400.0 mg/kg/injection, schedule: Q04DX003 (sc), vehicle: saline with Tween-80
  T/C: 85 % of control

## OCCN1CCN(CC/C=C2/c3ccccc3Sc3ccc(Cl)cc32)CC1
dose: 12.5 mg/kg/injection, schedule: Q04DX003 (sc), vehicle: saline
  T/C: 115 % of control
dose: 25.0 mg/kg/injection, schedule: Q04DX003 (sc), vehicle: saline
  T/C: 47 % of control
dose: 50.0 mg/kg/injection, schedule: Q04DX003 (sc), vehicle: saline
  T/C: 44 % of control and 51 % of control

## O=C1C(O)=C(c2ccccc2)C(=O)C(O)=C1c1ccccc1
dose: 75.0 mg/kg/injection, schedule: Q04DX003 (sc), vehicle: saline
  T/C: 118 % of control
dose: 150.0 mg/kg/injection, schedule: Q04DX003 (sc), vehicle: saline
  T/C: 74 % of control
[2]
  T/C: 61 % of control

## CNC(=O)/C=C/C1=CN2C(=O)c3ccc(C)c(O)c3NC(OC)C2C1 (stereo unspecified)
dose: 0.2 mg/kg/injection, schedule: Q04DX003 (sc), vehicle: saline
  T/C: 82 % of control
dose: 0.4 mg/kg/injection, schedule: Q04DX003 (ip), vehicle: saline
  T/C: 18 % of control and 21 % of control
dose: 1.6 mg/kg/injection, schedule: Q04DX003 (sc), vehicle: saline
  T/C: 3 % of control
